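Dose response: 5 concentrations. Exposure: 48 h. Format: 96-well plates. Endpoint: linear interpolation; highest concentration if not reached. Here, GI50 denotes the concentration required for 50% inhibition of growth.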 Calls of active or inactive are those of the source. Rule as the data show it: active = GI50 up to about 1.1 µM and inactive = higher.

Some test systems named below: UACC-257; SK-MEL-28; BT-549; A549; EKVX; IGROV-1; SNB-19; T47D; SR; SNB-75; U-251; LOX IMVI; RPMI-8226; NCI-H226; UACC-62; MDA-N; MDA-MB-435; CCRF-CEM; NCI-H460; HCT-116.
What all share (assay): NCI tumour cell line growth inhibition, 48 h

Regarding `N/C(=N\N=C\c1c[nH]c2ccccc12)Nc1ccccc1`, the GI50 was 0.304 µM (active) with UACC-257; 0.789 µM (active) with SK-MEL-28; 0.527 µM (active) in the test with BT-549; 0.455 µM (active) with A549; 2.92 µM (inactive) in the test on EKVX; 0.865 µM (active) in the test with IGROV-1. Besides, the GI50 is 0.54 µM (active) in the test with SNB-19; 1.36 µM (inactive) with T47D; 0.955 µM (active) in the test with SR; 0.378 µM (active) in the test with SNB-75; 0.315 µM (active) with U-251; 0.36 µM (active) in the test on LOX IMVI. For the same compound, the GI50 was 1 µM (active) in the test on RPMI-8226; 1.74 µM (inactive) in the test with NCI-H226; 0.248 µM (active) in the test with UACC-62; 0.0219 µM (active) in the test on MDA-N; 0.02 µM (active) with MDA-MB-435; 0.918 µM (active) in the test on CCRF-CEM. For the same compound, the GI50 was 0.251 µM (active) in the test with NCI-H460 and 0.214 µM (active) with HCT-116.

Consider `CC(CO)[C@H]1OC(=O)C=C2[C@@]13O[C@@H]3[C@H]1OC(=O)[C@@]3(C)[C@H]4O[C@H]4C[C@@]2(C)[C@@H]13` (stereo not given in full), for which the GI50 with UACC-257 is 1.44 µM (inactive); in the test with SK-MEL-28 it was 1.83 µM (inactive); in the test with BT-549, 2.11 µM (inactive); in the test on A549, 1.87 µM (inactive); with EKVX it was 2.64 µM (inactive); in the test with IGROV-1, 1.5 µM (inactive). The GI50 is 1.47 µM (inactive) with SNB-19; 2.92 µM (inactive) in the test with T47D; 0.288 µM (active) with SR; 0.738 µM (active) in the test on SNB-75; 2.15 µM (inactive) in the test with U-251; 0.249 µM (active) in the test with LOX IMVI. Moreover, the GI50 was 2.22 µM (inactive) in the test on RPMI-8226; 1.27 µM (inactive) in the test on NCI-H226; 1.16 µM (inactive) with UACC-62; 1.32 µM (inactive) in the test on MDA-N; 1.55 µM (inactive) in the test on MDA-MB-435; 0.5 µM (active) in the test with CCRF-CEM. Also, the values for the GI50 in the test with NCI-H460 and in the test on HCT-116 were 0.583 µM (active) and 1.07 µM (active), respectively.

For `C[C@]12CC[C@@H]3c4ccc(O)cc4CC[C@H]3[C@@H]1C/C(=C\c1ccc([N+](=O)[O-])cc1)C2=O`, the GI50 with UACC-257 is 34.8 µM (inactive); in the test on SK-MEL-28 it was > 100 µM (inactive); in the test with BT-549 it was > 100 µM (inactive); with A549, 57.9 µM (inactive); in the test with EKVX, 52.6 µM (inactive); with IGROV-1, > 100 µM (inactive). Moreover, the GI50 was > 100 µM (inactive) in the test on SNB-19; 40 µM (inactive) in the test on T47D; 65.3 µM (inactive) in the test on SR; 50.7 µM (inactive) in the test on SNB-75; 40.1 µM (inactive) in the test on U-251; 36.6 µM (inactive) with LOX IMVI. Further, the GI50 was > 100 µM (inactive) in the test with RPMI-8226; 71.6 µM (inactive) in the test with NCI-H226; 37.8 µM (inactive) in the test on UACC-62; 49.5 µM (inactive) in the test on MDA-N; 37.8 µM (inactive) with MDA-MB-435; 53.7 µM (inactive) with CCRF-CEM. The GI50 with NCI-H460 was 48 µM (inactive); with HCT-116, 37.7 µM (inactive).

`O=c1c2cc(I)ccc2nc(SCc2nnco2)n1Cc1ccccc1`: the GI50 in the test on UACC-257 is > 100 µM (inactive); with SK-MEL-28, > 100 µM (inactive); with BT-549, > 100 µM (inactive); with A549 it was > 100 µM (inactive); with EKVX, 29 µM (inactive); with IGROV-1, 80.7 µM (inactive). In addition, the GI50 in the test on SNB-19 was > 100 µM (inactive); with T47D, > 100 µM (inactive); in the test with SR it was > 100 µM (inactive); in the test on SNB-75 it was 56.5 µM (inactive); with U-251 it was > 100 µM (inactive); in the test with LOX IMVI, > 100 µM (inactive). The GI50 in the test with RPMI-8226 is > 100 µM (inactive); in the test with NCI-H226 it was > 100 µM (inactive); in the test with UACC-62, 73.8 µM (inactive); in the test with MDA-N it was > 100 µM (inactive); in the test on MDA-MB-435, > 100 µM (inactive); in the test on CCRF-CEM, 10.8 µM (inactive). Moreover, the GI50 in the test on NCI-H460 and with HCT-116 was > 100 µM (inactive) in each case.

Consider `COC(=O)C12C3C4C1C1C2C3C41C(=O)NC(C)(C)CC(=O)O` (stereo not given), for which the GI50 with UACC-257, in the test on SK-MEL-28, with BT-549, in the test on A549, in the test on EKVX and in the test with IGROV-1 was > 100 µM (inactive) in each case. Further, the GI50 in the test with SNB-19, in the test on T47D, with SR, with SNB-75, in the test on U-251 and with LOX IMVI was > 100 µM (inactive) in each case. The GI50 in the test on RPMI-8226, with NCI-H226, with UACC-62, in the test with MDA-N, in the test with MDA-MB-435 and in the test on CCRF-CEM was > 100 µM (inactive) each time. The GI50 was 20.7 µM (inactive) in the test with NCI-H460 and > 100 µM (inactive) in the test with HCT-116.

`CC(CCC(=O)O)C(=O)O` (stereo not given): the GI50 with UACC-257, in the test on SK-MEL-28, in the test with BT-549, in the test with A549, in the test with EKVX and in the test on IGROV-1 was > 100 µM (inactive) each time. The GI50 in the test with SNB-19, with T47D, in the test on SR, in the test with SNB-75, in the test on U-251 and in the test with LOX IMVI was > 100 µM (inactive) each time. In addition, the GI50 with RPMI-8226, with NCI-H226, in the test with UACC-62, with MDA-N, in the test on MDA-MB-435 and with CCRF-CEM was > 100 µM (inactive) each time. For the same compound, the GI50 with NCI-H460 and in the test with HCT-116 was > 100 µM (inactive) in each case.

For the compound `C[C@]12Cc3cnc(-c4ccccc4)nc3C[C@@H]1CC[C@@H]1[C@@H]2CC[C@@]2(C)[C@H]1CC[C@]2(C)O`, the GI50 with UACC-257 is 20.2 µM (inactive); with SK-MEL-28, 18.6 µM (inactive); with BT-549 it was 23 µM (inactive); with A549 it was 12.8 µM (inactive); in the test with EKVX it was 25.2 µM (inactive); in the test on IGROV-1 it was 19.7 µM (inactive). The GI50 in the test with SNB-19 was 18.5 µM (inactive); in the test on T47D it was 11 µM (inactive); with SR, 6.59 µM (inactive); with SNB-75, 6.12 µM (inactive); in the test on U-251, 16 µM (inactive); with LOX IMVI, 4.6 µM (inactive). Also, the GI50 is 5.06 µM (inactive) in the test with RPMI-8226; 26.1 µM (inactive) with NCI-H226; 11.2 µM (inactive) with UACC-62; 16.4 µM (inactive) in the test with MDA-N; 20.8 µM (inactive) in the test on MDA-MB-435; 13.9 µM (inactive) in the test on CCRF-CEM. For the same compound, the GI50 with NCI-H460 was 17.3 µM (inactive); with HCT-116 it was 17.4 µM (inactive).

Consider `CC(C)(C)OC(=O)NC(CCC(=O)OCc1ccccc1)C(=O)NCCCO` (stereo not given), for which the GI50 in the test on UACC-257, with SK-MEL-28, with BT-549, with A549, in the test with EKVX and in the test with IGROV-1 was > 100 µM (inactive) throughout. Besides, the GI50 with SNB-19, with T47D, with SR, with SNB-75, in the test with U-251 and in the test with LOX IMVI was > 100 µM (inactive) in each case. For the same compound, the GI50 in the test with RPMI-8226, in the test with NCI-H226, in the test on UACC-62, in the test with MDA-N, in the test with MDA-MB-435 and with CCRF-CEM was > 100 µM (inactive) each time. Moreover, the GI50 in the test on NCI-H460 and in the test on HCT-116 was > 100 µM (inactive) throughout.

Consider `O=C(CNc1ccccc1[N+](=O)[O-])Nn1c(-c2ccccc2)nc2ccccc2c1=O`, for which the GI50 with UACC-257 is > 10 µM (inactive); in the test on SK-MEL-28 it was 23.5 µM (inactive); with BT-549 it was 17.9 µM (inactive); in the test with A549, 43.5 µM (inactive); with EKVX it was 19.6 µM (inactive); in the test with IGROV-1, 16.3 µM (inactive). In addition, the GI50 is 22.8 µM (inactive) in the test on SNB-19; 17.3 µM (inactive) in the test on T47D; 18.2 µM (inactive) in the test with SR; 11.3 µM (inactive) with SNB-75; 19.2 µM (inactive) with U-251; 11.2 µM (inactive) in the test on LOX IMVI. For the same compound, the GI50 in the test with RPMI-8226 is 20.9 µM (inactive); in the test on NCI-H226 it was 29.2 µM (inactive); in the test on UACC-62 it was 10.7 µM (inactive); with MDA-N, 19.9 µM (inactive); in the test with MDA-MB-435, 24.5 µM (inactive); in the test with CCRF-CEM it was 15.8 µM (inactive). The GI50 in the test on NCI-H460 was 20.9 µM (inactive); in the test with HCT-116, 16.1 µM (inactive).

As to `O=C(O)c1ccccc1/C=N/N=C1NCCCCN1`, the GI50 with UACC-257, in the test on SK-MEL-28, with BT-549, with A549, in the test with EKVX and with IGROV-1 was > 100 µM (inactive) throughout. For the same compound, the GI50 with SNB-19, with T47D, in the test with SR, in the test with SNB-75, in the test with U-251 and with LOX IMVI was > 100 µM (inactive) throughout. For the same compound, the GI50 in the test on RPMI-8226, with NCI-H226, in the test with UACC-62, with MDA-N, in the test with MDA-MB-435 and with CCRF-CEM was > 100 µM (inactive) in each case. In addition, the GI50 with NCI-H460 and in the test on HCT-116 was > 100 µM (inactive) throughout.

The values above are taken from ChEMBL document CHEMBL1201862, “PubChem BioAssay data set” (2004).
